Measured values reported in patent US12180193B2, “Accelerating fibrosarcoma protein degrading compounds and associated methods of use” (Arvinas Operations, Inc., priority 2020, dated 2024).

Experiments:
[1] = molecular target: T1, BRAF V600E (Homo sapiens, UniProt P15056, V600E); experiment: Cellular assay of target protein degradation, T-Rex 293 cells stably transfected with HA-BRAF_V600E (HA immunofluorescence, high content imaging); assay type: cell-based; settings: T-Rex 293 HA-BRAF V600E; for DC50: half maximal degradation, read-out: BRaf V600E DC50; for Dmax: maximum degradation observed
T1 construct: expressed in transfected cells
How it was run: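 HA immunofluorescence on fixed cells, imaged by high-content reader, measured loss of HA-BRAF V600E in stably transfected T-Rex 293 cells induced with 1 ng/mL doxycycline. Compounds were applied for 24 h at 37 °C (final 0.1 nM–1 μM, 0.1% DMSO); DC50 and Dmax (% of control) were reported.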

[2] = molecular target: T2, BRAF G466V (Homo sapiens, UniProt P15056, G466V); experiment: Cellular assay of target protein degradation, T-Rex 293 cells stably transfected with HA-BRAF G466V (HA immunofluorescence, high content imaging); assay type: cell-based; settings: T-Rex 293 HA-BRAF G466V; for DC50: half maximal degradation, read-out: BRaf G466V DC50; for Dmax: maximum degradation observed
T2 construct: expressed in transfected cells
How it was run: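 HA-BRAF G466V levels were read by HA immunofluorescence and high-content imaging after 24 h compound exposure (final 30 nM–3 pM, 0.1% DMSO, 37 °C). Expression was induced with 0.75 ng/mL doxycycline. Outputs: half-maximal degradation concentration (DC50) and maximal degradation (Dmax) relative to control.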

T1 sequence (P15056 whole entry V600E): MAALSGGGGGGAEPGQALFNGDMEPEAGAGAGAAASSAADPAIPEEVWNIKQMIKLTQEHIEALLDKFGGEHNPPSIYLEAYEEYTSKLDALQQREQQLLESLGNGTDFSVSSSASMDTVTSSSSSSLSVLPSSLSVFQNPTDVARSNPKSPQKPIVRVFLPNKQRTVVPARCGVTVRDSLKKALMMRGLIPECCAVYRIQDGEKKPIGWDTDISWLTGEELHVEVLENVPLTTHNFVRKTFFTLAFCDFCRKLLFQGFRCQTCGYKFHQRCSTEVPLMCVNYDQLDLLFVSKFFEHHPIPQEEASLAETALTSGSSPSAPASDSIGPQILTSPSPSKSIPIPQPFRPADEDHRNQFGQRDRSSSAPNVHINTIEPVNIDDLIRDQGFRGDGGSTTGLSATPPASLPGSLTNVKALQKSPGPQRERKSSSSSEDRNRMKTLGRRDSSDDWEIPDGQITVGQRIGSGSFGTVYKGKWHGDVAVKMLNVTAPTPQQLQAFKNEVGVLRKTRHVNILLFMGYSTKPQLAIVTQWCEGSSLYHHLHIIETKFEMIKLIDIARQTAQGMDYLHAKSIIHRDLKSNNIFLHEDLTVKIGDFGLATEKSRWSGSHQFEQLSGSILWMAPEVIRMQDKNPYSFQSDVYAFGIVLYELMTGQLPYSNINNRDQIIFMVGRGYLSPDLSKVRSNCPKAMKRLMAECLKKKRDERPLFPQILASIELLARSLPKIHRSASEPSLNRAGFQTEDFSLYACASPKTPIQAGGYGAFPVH
T2 sequence (P15056 whole entry G466V): as the sequence (P15056 whole entry V600E) above, with G466V, E600V counted along it

Row | DC50 [1] [nM] | DC50 [2] [nM] | Dmax [1] [%] | Dmax [2] [%] | Structure (SMILES)
1 | > 500 | > 30 |  |  | CN1C(=O)CCC(N2Cc3cc(C4CCN(CC5CCN(c6ccc(-c7cnc8[nH]cc(C(=O)c9c(F)ccc(NS(=O)(=O)N%10CC[C@@H](F)C%10)c9F)c8c7)cc6)CC5)CC4)ccc3C2=O)C1=O (stereo partly drawn) [Compound 169, (3R)-N-[2,4-difluoro-3-(5-{4-[4-({4-[2-(1-methyl-2,6-dioxopiperidin-3-yl)-1-oxo-2,3-dihydro-1H-isoindol-5-yl]piperidin-1-yl}methyl)piperidin-1-yl]phenyl}-1H-pyrrolo[2,3-b]pyridine-3-carbonyl)phenyl]-3-fluoropyrrolidine-1-sulfonamide]
2 | 5 to 50 | 1 to 10 | 35 to 70 | > 70 | O=C1CC[C@H](N2Cc3cc(N4CC5(CN(CC6CCN(c7ccc(-c8cnc9[nH]cc(C(=O)c%10c(F)ccc(NS(=O)(=O)N%11CC[C@@H](F)C%11)c%10F)c9c8)cc7)CC6)C5)C4)ccc3C2=O)C(=O)N1 [Compound 221, (3R)-N-{3-[5-(4-{4-[(6-{2-[(3S)-2,6-dioxopiperidin-3-yl]-1-oxo-2,3-dihydro-1H-isoindol-5-yl}-2,6-diazaspiro[3.3]heptan-2-yl)methyl]piperidin-1-yl}phenyl)-1H-pyrrolo[2,3-b]pyridine-3-carbonyl]-2,4-difluorophenyl}-3-fluoropyrrolidine-1-sulfonamide]
3 | > 500 | > 30 |  |  | O=C1CC[C@H](N2Cc3cc(N4CC[C@@H](COc5ccc(-c6cnc7[nH]cc(C(=O)c8c(F)ccc(NS(=O)(=O)N9CC[C@@H](F)C9)c8F)c7c6)cc5)C4)ccc3C2=O)C(=O)N1 [Compound 335, (3R)-N-{3-[5-(4-{[(3R)-1-{2-[(3S)-2,6-dioxopiperidin-3-yl]-1-oxo-2,3-dihydro-1H-isoindol-5-yl}pyrrolidin-3-yl]methoxy}phenyl)-1H-pyrrolo[2,3-b]pyridine-3-carbonyl]-2,4-difluorophenyl}-3-fluoropyrrolidine-1-sulfonamide]
4 | < 5 | < 1 | 35 to 70 | > 70 | O=C1CC[C@@H](N2Cc3cc(C4CCN(CC5CCN(c6ccc(-c7cnc8[nH]cc(C(=O)c9c(F)ccc(NS(=O)(=O)N%10CC[C@@H](F)C%10)c9F)c8c7)cc6F)CC5)CC4)ccc3C2=O)C(=O)N1 [Compound 88, (3R)-N-{3-[5-(4-{4-[(4-{2-[(3R)-2,6-dioxopiperidin-3-yl]-1-oxo-2,3-dihydro-1H-isoindol-5-yl}piperidin-1-yl)methyl]piperidin-1-yl}-3-fluorophenyl)-1H-pyrrolo[2,3-b]pyridine-3-carbonyl]-2,4-difluorophenyl}-3-fluoropyrrolidine-1-sulfonamide]
5 | 50 to 500 | < 1 | 35 to 70 | > 70 | O=C1CC[C@@H](N2Cc3cc([C@@H](O)CCN4CCN(c5ccc(-c6cnc7[nH]cc(C(=O)c8c(F)ccc(NS(=O)(=O)N9CC[C@@H](F)C9)c8F)c7c6)cc5)CC4)c(F)cc3C2=O)C(=O)N1 [Compound 301, (3R)-N-{3-[5-(4-{4-[(3S)-3-{2-[(3R)-2,6-dioxopiperidin-3-yl]-6-fluoro-1-oxo-2,3-dihydro-1H-isoindol-5-yl}-3-hydroxypropyl]piperazin-1-yl}phenyl)-1H-pyrrolo[2,3-b]pyridine-3-carbonyl]-2,4-difluorophenyl}-3-fluoropyrrolidine-1 sulfonamide]
6 | < 5 | 1 to 10 | 35 to 70 | > 70 | O=C1CCC(N2Cc3cc(N4CCC(N5CCN(CC6CN(c7ccc(-c8cnc9[nH]cc(C(=O)c%10c(F)ccc(NS(=O)(=O)N%11CC[C@@H](F)C%11)c%10F)c9c8)cc7)C6)CC5)CC4)ccc3C2=O)C(=O)N1 (stereo partly drawn) [Compound 144, (3R)-N-{3-[5-(4-{3-[(4-{1-[2-(2,6-dioxopiperidin-3-yl)-1-oxo-2,3-dihydro-1H-isoindol-5-yl]piperidin-4-yl}piperazin-1-yl)methyl]azetidin-1-yl}phenyl)-1H-pyrrolo[2,3-b]pyridine-3-carbonyl]-2,4-difluorophenyl}-3-fluoropyrrolidine-1-sulfonamide]
7 | > 500 | < 1 | > 70 | 35 to 70 | O=C1CCC(N2Cc3cc(N4CC5(CN(c6ccc(-c7cnc8[nH]cc(C(=O)c9c(F)ccc(NS(=O)(=O)N%10CC[C@@H](F)C%10)c9F)c8c7)cc6)C5)C4)ccc3C2=O)C(=O)N1 (stereo partly drawn) [Compound 26, (3R)-N-{3-[5-(4-{6-[2-(2,6-dioxopiperidin-3-yl)-1-oxo-2,3-dihydro-1H-isoindol-5-yl]-2,6-diazaspiro[3.3]heptan-2-yl}phenyl)-1H-pyrrolo[2,3-b]pyridine-3-carbonyl]-2,4-difluorophenyl}-3-fluoropyrrolidine-1-sulfonamide]
8 | < 5 | < 1 | 35 to 70 | 35 to 70 | O=C1CC[C@H](N2Cc3cc(CCCCN4CC5(C4)CN(c4ccc(-c6cnc7[nH]cc(C(=O)c8c(F)ccc(NS(=O)(=O)N9CC[C@@H](F)C9)c8F)c7c6)cc4)C5)ccc3C2=O)C(=O)N1 [Compound 62, (3R)-N-[3-(5-{4-[6-(4-{2-[(3S)-2,6-dioxopiperidin-3-yl]-1-oxo-2,3-dihydro-1H-isoindol-5-yl}butyl)-2,6-diazaspiro[3.3]heptan-2-yl]phenyl}-1H-pyrrolo[2,3-b]pyridine-3-carbonyl)-2,4-difluorophenyl]-3-fluoropyrrolidine-1-sulfonamide]
9 | < 5 | 1 to 10 | 35 to 70 | > 70 | O=C1CC[C@H](N2Cc3cc(OCCCN4CC5(C4)CN(c4ccc(-c6cnc7[nH]cc(C(=O)c8c(F)ccc(NS(=O)(=O)N9CC[C@@H](F)C9)c8F)c7c6)cc4)C5)ccc3C2=O)C(=O)N1 [Compound 80, (3R)-N-{3-[5-(4-{6-[3-({2-[(3S)-2,6-dioxopiperidin-3-yl]-1-oxo-2,3-dihydro-1H-isoindol-5-yl}oxy)propyl]-2,6-diazaspiro[3.3]heptan-2-yl}phenyl)-1H-pyrrolo[2,3-b]pyridine-3-carbonyl]-2,4-difluorophenyl}-3-fluoropyrrolidine-1-sulfonamide]
10 | 5 to 50 | 1 to 10 | 35 to 70 | > 70 | COc1cc(N2CCN(CC3CCN(c4ccc(-c5cnc6[nH]cc(C(=O)c7c(F)ccc(NS(=O)(=O)N8CC[C@@H](F)C8)c7F)c6c5)cc4)CC3)CC2)ccc1C(=O)N[C@H]1CCC(=O)NC1=O [Compound 359, 4-(4-{[1-(4-{3-[2,6-difluoro-3-({[(3R)-3-fluoropyrrolidin-1-yl]sulfonyl}amino)benzoyl]-1H-pyrrolo[2,3-b]pyridin-5-yl}phenyl)piperidin-4-yl]methyl}piperazin-1-yl)-N-[(3S)-2,6-dioxopiperidin-3-yl]-2-methoxybenzamide]
11 | 5 to 50 | 1 to 10 | < 35 | > 70 | COc1cc(N2CC3(CN(CC4CCN(c5ccc(-c6cnc7[nH]cc(C(=O)c8c(F)ccc(NS(=O)(=O)N9CC[C@@H](F)C9)c8F)c7c6)cc5)CC4)C3)C2)cc2c1C(=O)N([C@@H]1CCC(=O)NC1=O)C2 [Compound 250, (3R)-N-{3-[5-(4-{4-[(6-{2-[(3R)-2,6-dioxopiperidin-3-yl]-7-methoxy-1-oxo-2,3-dihydro-1H-isoindol-5-yl}-2,6-diazaspiro[3.3]heptan-2-yl)methyl]piperidin-1-yl}phenyl)-1H-pyrrolo [2,3-b]pyridine-3-carbonyl]-2,4-difluorophenyl}-3-fluoropyrrolidine-1-sulfonamide]
12 | 5 to 50 | 1 to 10 | 35 to 70 | > 70 | C[C@H]1[C@H](F)CCN1S(=O)(=O)Nc1ccc(F)c(C(=O)c2c[nH]c3ncc(-c4ccc(N5CCC(CN6CCC(c7ccc8c(c7)CN([C@H]7CCC(=O)NC7=O)C8=O)CC6)CC5)cc4)cc23)c1F [Compound 270, (2S,3R)-N-{3-[5-(4-{4-[(4-{2-[(3S)-2,6-dioxopiperidin-3-yl]-1-oxo-2,3-dihydro-1H-isoindol-5-yl}piperidin-1-yl)methyl]piperidin-1-yl}phenyl)-1H-pyrrolo [2,3-b]pyridine-3-carbonyl]-2,4-difluorophenyl}-3-fluoro-2-methylpyrrolidine-1-sulfonamide]
13 | 50 to 500 | 1 to 10 | 35 to 70 | 35 to 70 | O=C1CC[C@@H](N2Cc3cc(N4CC(CN5CCN(C6(c7ncc(-c8cnc9[nH]cc(C(=O)c%10c(F)ccc(NS(=O)(=O)N%11CC[C@@H](F)C%11)c%10F)c9c8)cn7)CC6)CC5)C4)ccc3C2=O)C(=O)N1 [Compound 286, (3R)-N-(3-{5-[2-(1-{4-[(1-{2-[(3R)-2,6-dioxopiperidin-3-yl]-1-oxo-2,3-dihydro-1H-isoindol-5-yl}azetidin-3-yl)methyl]piperazin-1-yl}cyclopropyl)pyrimidin-5-yl]-1H-pyrrolo[2,3-b]pyridine-3-carbonyl}-2,4-difluorophenyl)-3-fluoropyrrolidine-1-sulfonamide]
14 | 50 to 500 | 1 to 10 | 35 to 70 | 35 to 70 | O=C1CCC(N2Cc3cc(N4CC(CC5CCN(c6ccc(-c7cnc8[nH]cc(C(=O)c9c(F)ccc(NS(=O)(=O)N%10CC[C@@H](F)C%10)c9F)c8c7)cc6)CC5)C4)ccc3C2=O)C(=O)N1 (stereo partly drawn) [Compound 306, (3R)-N-[3-(5-{4-[4-({1-[2-(2,6-dioxopiperidin-3-yl)-1-oxo-2,3-dihydro-1H-isoindol-5-yl]azetidin-3-yl}methyl)piperidin-1-yl]phenyl}-1H-pyrrolo[2,3-b]pyridine-3-carbonyl)-2,4-difluorophenyl]-3-fluoropyrrolidine-1-sulfonamide]
